Measured values taken from ChEMBL document CHEMBL5247637, “Rational design, synthesis and biological evaluation of novel 2-(substituted amino)-[1,2,4]triazolo[1,5-a]pyrimidines as novel tubulin polymerization inhibitors” (Eur J Med Chem, 2022).

Experiments:
Tubulin (Homo sapiens) = Tubulin (Homo sapiens) (UniProt P68371+Q9H4B7+P0DPH7+P68366+Q13509+Q71U36+P04350+Q3ZCM7+P07437+P68363+Q9BQE3+Q6PEY2+Q13885+Q9BVA1+Q9BUF5); assay: Inhibition of tubulin polymerization (unknown origin) at 10 uM incubated for 0.5 hrs in presence of GTP by spectrophotometer analysis relative to control; assay type: protein-complex assay
Tubulin = assay: Inhibition of tubulin polymerization (unknown origin) incubated for 0.5 hrs in presence of GTP by spectrophotometer analysis; assay type: protein-complex assay, Homo sapiens
T47D = assay: Antiproliferative activity against human T47D cells assessed as inhibition of cell growth measured after 48 hrs by MTT assay; assay type: functional, cell-based
A549 = assay: Antiproliferative activity against human A549 cells assessed as inhibition of cell growth measured after 48 hrs by MTT assay; assay type: functional, cell-based; settings: A549, 48 h

| inhibition (Tubulin (Homo sapiens)) [%] | IC50 (Tubulin) [nM] | SMILES | IC50 (T47D) [nM] | IC50 (A549) [nM] |
| --- | --- | --- | --- | --- |
| 56 | 9900 | COc1ccc(C2C(C(C)=O)=C(C)N=C3N=C(c4cc(OC)c(OC)c(OC)c4)NN32)cc1[N+](=O)[O-] (configuration not stated) |  |  |
| 43 | 4900 | COc1ccc(Nc2nc3nccc(-c4cc(OC)c(OC)c(OC)c4)n3n2)cc1O |  |  |
| 78 |  | COc1ccc(Nc2nc3nccc(-c4cc(OC)c(OC)c(OC)c4)n3n2)cc1N |  |  |
|  |  | COc1ccc(/C=C\c2cc(OC)c(OC)c(OC)c2)cc1O [COMBRETASTATIN A4] | 21 | 27 |
